The subject of data set [1] is subarachnoid hemorrhage in rats. The data set is described as follows: Rat subarachnoid hemorrhage (SAH) model by intravascular puncture, Sugawara bleeding score. The data set is classed as in vivo. Details: dose or concentration left out as unconfirmed. The following applies: tail vein injection, 2 administrations 4 h apart, scored 24 h after first administration (Sugawara). The method, then:
Rat subarachnoid hemorrhage (SAH) model was built by intravascular puncture. After being weighed, the rats were anesthetized with sodium pentobarbital (50 mg/kg) or chloral hydrate (300 mg/kg) by intraperitoneal injection, then fixed on their back and maintained the animal's body temperature at about 37° C. The rats' neck skin was shaved for surgery, a median incision was made on the neck, and muscle and fascia were separated along the inner edge of stemocleidomastoid muscle to expose the main and bifurcation of right common carotid artery, and expose the external and internal carotid arteries.
The bifurcation of internal carotid artery was gently clamped with ophthalmic forceps, the bifurcation of the internal carotid artery and the external carotid artery was pierced with a 6-gauge syringe needle, the ophthalmic forceps holding the bifurcation of internal carotid artery was slightly loosen, and No. 3 fishing thread was used to perform a puncture at the bleeding point, the ophthalmic forceps on the internal carotid artery was loosen, and the fishing thread was inserted into skull. […] After staying for 15 seconds, the thread for puncture was completely removed, and the skin was sutured after compression to stop the bleeding. 1.6 million units of penicillin potassium (400,000 units/ml, 0.2 ml/rat) was intramuscularly injected to avoid wound infection. For the sham operation group, the thread for puncture was removed when resistance was felt without piercing the bifurcation of the anterior cerebral artery and the middle cerebral artery, while the remaining operation steps were the same as the model group. After the operation, the rats were transferred to a thermal insulation blanket, then transferred to a squirrel cage when they were basically awake, and kept normally.
In this test experimental, 32 groups were set, i.e., Groups 1 to 32, in which Group 1 was a normal control group (healthy rats), Group 2 was a sham operation control group (not modeling by puncture), Group 3 was a model control group (modeling by puncture, administrated with normal saline), Group 4 was a positive control group (modeling by puncture, administrated with fasudil hydrochloride injection), and Groups 5 to 32 were test groups of the compounds of the present application (modeling by puncture, respectively administrated with the compounds of the present application); and there were 8 animals (purchased from SPF (Beijing) Biotechnology Co., Ltd., the certificate number was SYXK (Beijing) 2016-0002) in each group, half of them were female and half of them were male. The animals were subjected to fasting for 12 to 18 hours without prohibition of drinking water before modeling. […] The rats were euthanized 24 h after the first administration, and the brains were taken. According to Sugawara's method (Reference: Sugawara T, Ayer R, Jadhav V, et al. A new grading system evaluating bleeding scale in filament perforation subarachnoid hemorrhage rat model. J Neurosci Methods. 2008, 167(2):327-34), the subarachnoid hemorrhage amounts were scored, and the scoring results were as follows: […]

Data set [2] can be described thus: Toxicity test on endothelial cells EA.hy926, CCK-8 cell viability. The data set is classed as cell-based. Particulars: human, 1000~0.32 μmol/L, 5-fold dilution, read-out: IC50 of Test compound (cytotoxicity on EA.hy926 cells). The method, then:
In this test example, 31 groups, i.e., Groups 1 to 31, were set, in which Group 1 was a blank control group, Group 2 was a normal control group, Group 3 was a positive control group, and Groups 4 to 31 were test groups of the compounds of the present application. The specific test operation comprised: 100 μL of endothelial cells EA.hy926 (purchased from Suzhou Beina Chuanglian Biotechnology Co., Ltd.) with a density of 5×10^4 was added to each well of a 96-well plate, and transferred to an incubator at 37° C. with 5% CO2 and saturated humidity conditions and cultured for 24 hours, 100 μL of 2× the test compound solution prepared and diluted with DMEM medium containing 10% fetal bovine serum was added, in which the test compound added in the positive control group was Fasudil hydrochloride (purchased from Beijing Sihuan Pharmaceutical Co., Ltd., SFDA approval number H20173349) solution with different concentrations, an equal volume of DMEM medium was added in the blank control group, an equal volume of PBS buffer was added in the normal control group, and a duplicate well was set for each concentration point. After adding the test compound, the culture was continued in the incubator for 24 hours, then 20 μL of CCK-8 detection solution (purchased from Beijing Solarbio Science & Technology Co., Ltd., Cat. No. CA1210) was added to each well, interacted at 37° C. for 2.5 hours, shaken and mixed well, and then the absorbance value at 450 nm was detected.
OD values were detected, and the cell viability values of test groups of different concentrations were calculated according to the cell viability calculation formula as follows: Cell viability=(Atest group−Ablank control)/(Anormal control−Ablank control)*100%
wherein A represented absorbance value at 450 nm.
Prism6.0 was used to obtain the inhibitor concentration-viability curve and to calculate the IC50 of the test compound, the correlation coefficient R^2>0.99; the inhibitor concentration-viability curves of Fasudil hydrochloride, R-YK1601, R-YK1603, R-YK1606, R-YK1607, R-YK1610 were shown in FIGS. 1 to 6, in which the abscissa was the logarithm on base 10 of the concentration of the test compound, and the ordinate was the cell activity (i.e., cell viability).

Usually IC50 stands for the concentration needed to halve the response being measured. Regarding `CC1CNCCCN1S(=O)(=O)c1cccc2c(O)ncc(C3CC3)c12` (racemic) [Compound YK1600-1, 4-cyclopropyl-5-((2-methyl-1,4-diazacycloheptan-1-yl)sulfonyl)isoquinolin-1-ol], the “Cerebral hemorrhage volume score (x ± s)” value in data set [1] came out at 14.36 ± 2.53. Also, the IC50 at 24 h in data set [2] came out at 97.8 µM.
For the molecule `COc1ncc(C2CC2)c2c(S(=O)(=O)N3CCCNCC3C)cccc12` (racemic) [Compound YK1600-2, 4-cyclopropyl-1-methoxy-5-((2-methyl-1,4-diazacycloheptan-1-yl)sulfonyl)isoquinoline], the “Cerebral hemorrhage volume score (x ± s)” value in data set [1] was found to be 14.49 ± 2.62. Further, the half-inhibitory concentration (IC50) at 24 h in data set [2] is 85.1 µM.
In the same order, the values of `CC1CNCCCN1S(=O)(=O)c1cccc2c(O)nccc12` (racemic) [Compound YK1601, 5-((2-methyl-1,4-diazacycloheptan-1-yl)sulfonyl)isoquinolin-1-ol] are 12.75 ± 2.01 and 496 µM.
The corresponding values for `COc1nccc2c(S(=O)(=O)N3CCCNCC3C)cccc12` (racemic) [Compound YK1602, 1-methoxy-5-((2-methyl-1,4-diazacycloheptan-1-yl)sulfonyl)isoquinoline] are 12.92 ± 2.03 and 333 µM.
The corresponding values for `CC1CNCCCN1S(=O)(=O)c1cccc2cnccc12` (racemic) [Compound YK1603, 5-((2-methyl-1,4-diazacycloheptan-1-yl)sulfonyl)isoquinoline] are 12.96 ± 1.99 and 176 µM.
As to `CC1CNCCCN1S(=O)(=O)c1cccc2c(O)ncc(F)c12` (racemic) [Compound YK1604, 4-fluoro-5-((2-methyl-1,4-diazacycloheptan-1-yl)sulfonyl)isoquinolin-1-ol], the “Cerebral hemorrhage volume score (x ± s)” value in data set [1] was found to be 13.08 ± 1.97. In addition, the IC50 at 24 h in data set [2] was 130 µM.
In the same order, the values of `COc1ncc(F)c2c(S(=O)(=O)N3CCCNCC3C)cccc12` (racemic) [Compound YK1605, 4-fluoro-1-methoxy-5-((2-methyl-1,4-diazacycloheptan-1-yl)sulfonyl)isoquinoline] are 13.95 ± 2.02 and 103 µM.
In the same order, the values of `CC1CNCCCN1S(=O)(=O)c1cccc2c(O)ncc(Cl)c12` (racemic) [Compound YK1606, 4-chloro-5-((2-methyl-1,4-diazacycloheptan-1-yl)sulfonyl)isoquinolin-1-ol] are 13.71 ± 2.03 and 98 µM.
The corresponding values for `CCc1cnc(O)c2cccc(S(=O)(=O)N3CCCNCC3C)c12` (racemic) [Compound YK1607, 4-ethyl-5-((2-methyl-1,4-diazacycloheptan-1-yl)sulfonyl)isoquinolin-1-ol] are 13.09 ± 2.09 and 139 µM.
For the molecule `O=S(=O)(c1cccc2cnccc12)N1CCCNCC1C1CC1` (racemic) [Compound YK1608, 5-((2-cyclopropyl-1,4-diazacycloheptan-1-yl)sulfonyl)isoquinoline], in data set [1], the “Cerebral hemorrhage volume score (x ± s)” value is given as 13.98 ± 2.01. Moreover, the IC50 at 24 h in data set [2] is 165 µM.
In the same order, the values of `CC(C)C1CNCCCN1S(=O)(=O)c1cccc2c(O)nccc12` (racemic) [Compound YK1609, 5-((2-isopropyl-1,4-diazacycloheptan-1-yl)sulfonyl)isoquinolin-1-ol] are 13.27 ± 1.96 and 228 µM.
In the same order, the values of `CCC1CNCCCN1S(=O)(=O)c1cccc2c(OC)nccc12` (racemic) [Compound YK1610, 5-((2-ethyl-1,4-diazacycloheptan-1-yl)sulfonyl)-1-methoxyisoquinoline] are 13.83 ± 2.01 and 98.8 µM.
As for `CCCCC1CNCCCN1S(=O)(=O)c1cccc2c(O)nccc12` (racemic) [Compound YK1611, 5-((2-butyl-1,4-diazacycloheptan-1-yl)sulfonyl)isoquinolin-1-ol], the “Cerebral hemorrhage volume score (x ± s)” value in data set [1] amounted to 13.39 ± 2.03. In data set [2], the IC50 at 24 h came to 184 µM.
In the same order, the values of `COc1nccc2c(S(=O)(=O)N3CCCNCC3CCC(C)C)cccc12` (racemic) [Compound YK1612, 5-((2-isopentyl-1,4-diazacycloheptan-1-yl)sulfonyl)-1-methoxyisoquinoline] are 14.05 ± 1.96 and 89.6 µM.

Source of the values: patent US12264146B2, “Rho kinase inhibitor, method for preparing same and uses thereof” (BEIJING INCREASE INNOVATIVE DRUG CO., LTD., priority 2018, dated 2025).
